What was measured:
Assay type in all cases: physicochemical
[1] = Residual solvent content; settings: form obtained from slurry in aqueous ethanol
Description: The amounts of residual solvents of the novel forms H and D of ceftaroline fosamil of the present invention are well within the allowed ICH-limits. E.g. for the production of form H of ceftaroline fosamil of the present invention no organic solvent is used as this specific form is obtained from a slurry in water. Form D is obtained from a slurry of ceftaroline fosamil in aqueous ethanol. […] Therefore ceftaroline fosamil forms H and D are suitable forms for the preparation of a medicament.

[2] = Humidity and temperature controlled XRPD (sorptive/desorptive cycle, 0-90% RH); settings: RH varied between 0 and 90%, 25° C.
Description: The positions of certain XRPD peaks of form H change when varying the RH between 0 and 90%. XRPD measurements in this range show anisotropic peak shifts to higher 2-theta angles on drying, which are reversible when increasing the relative humidity. These shifts are due to the shrinkage respectively the expansion of the unit cell caused by humidity dependent water contents in the sample. […] Table 1 lists some characteristic XRPD peaks from diffractograms recorded at increasing relative humidities during the sorptive cycle of the experiment.
For humidity and temperature controlled XRPD measurements samples were equilibrated in a VGI 2000M humidity chamber (SMS, Middlesex UK) with integrated peltier heat pump, circulating fluid pump and water reservoir to ensure uniform temperature distribution and stable sample humidities. RH controlled sorptive and desorptive measurements were recorded between 0%-90% RH+/−0.3% RH in 10% steps with an equilibrium time of 2 hours between consecutive measurements.

[3] = Storage at different relative humidities (composition / pKa constancy); settings: for change of composition when stored at different relative humidities: pKa of the drug substance not affected
Description: Both ceftaroline fosamil acetic acid solvate monohydrate and ceftaroline fosamil propionic acid solvate monohydrate of EP1310502 A1 contain carbon acids in their crystal structure. […] Consequently in order to avoid batch-wise adjusting of the pH adjusting excipient, ceftaroline fosamil acetic acid solvate monohydrate and ceftaroline fosamil propionic acid solvate monohydrate of EP1310502 A1 need to be stored at low relative humidities in order to ensure a constant carbon acid amount and therefore a constant pKa value of the drug substance.

| SMILES | ethanol amount (residual solvent) [1] | physical (solid form) stability on varying relative humidity, by XRPD [2] | change of composition when stored at different relative humidities [3] | fate of carbon acid in the crystal structure at increased relative humidities ([3]; increased relative humidities, decreased carbon acid amount affects pKa of drug substance) |
| --- | --- | --- | --- | --- |
| CCO/N=C(\C(=O)N[C@@H]1C(=O)N2C(C(=O)[O-])=C(Sc3nc(-c4cc[n+](C)cc4)cs3)CS[C@H]12)c1nsc(NP(=O)(O)O)n1 [form D, ceftaroline fosamil] | below 0.5% | no peak shifts are observed | only show variations in their water content | – |
| CCO/N=C(\C(=O)N[C@@H]1C(=O)N2C(C(=O)[O-])=C(Sc3nc(-c4cc[n+](C)cc4)cs3)CS[C@H]12)c1nsc(NP(=O)(O)O)n1 [ceftaroline fosamil acetic acid solvate monohydrate, reference compound] | – | – | – | partially replaced by water |
| CCO/N=C(\C(=O)N[C@@H]1C(=O)N2C(C(=O)[O-])=C(Sc3nc(-c4cc[n+](C)cc4)cs3)CS[C@H]12)c1nsc(NP(=O)(O)O)n1 [form H, ceftaroline fosamil] | – | a phase transformation can be excluded | only show variations in their water content | – |
